Experimental findings from patent US20250380696A1, “METHOD FOR CONTROLLING UNDESIRED PLANTS AND PROMOTING GROWTH OF USEFUL PLANTS” (ISHIHARA SANGYO KAISHA, LTD., priority 2022, published 2025) are described below.

Common to all, as to type: in vivo
The subject of test [1] is Italian ryegrass (Lolium multiflorum). The test can be described thus: (1) Herbicidal effect test, pot, spray at 2.3 to 3.0 leaf stage. To be noted: 6th day after spraying. As to the method:
(§1) Upland soil was put in a 1/1,000,000 hectare pot, and seeds of Italian ryegrass (Lolium multiflorum) were sown. When the Italian ryegrass reached 2.3 to 3.0 leaf stage, a water-based suspension containing tiafenacil as the active ingredient, prepared by a conventional method for preparing a water-based suspension, and an emulsifiable concentrate containing S-metolachlor as the active ingredient (tradename: Dual Gold, manufactured by Syngenta), were diluted with water (in an amount corresponding to 200 liter per hectare) containing 0.5 vol % of an agricultural spreader (tradename: Destiny HC, manufactured by Winfield Solutions, LLC.) and sprayed by a small spray gun (model: W-101-132G, manufactured by ANEST IWATA Corporation). On the 6th day after spraying, the state of growth of the Italian ryegrass was visually observed, and the growth inhibition rate (%) was obtained based on the following standards and the results are shown in Table 1.
Further, the expected value of the growth inhibition rate (%) was calculated in accordance with the following Colby's formula (S. R. Colby, “Weeds”, vol. 15 ([…]), p. 20-22) and the results are also shown in Table 1.
(§2) [formula] • X: growth inhibition rate when treated with α (g/ha) of compound A, • Y: growth inhibition rate when treated with β (g/ha) of compound B, • E: growth inhibition rate expected when treated with α (g/ha) of compound A and β (g/ha) of compound B (expected value).
That is, when the growth inhibition rate of the composition of the present invention is higher than E (expected value of growth inhibition rate) calculated by the above formula, the combination can be regarded as having a synergistic effect.

The test system is the same in test [2]. The test can be described thus: (2) Herbicidal effect test, pot, spray at 2.5 to 3.0 leaf stage. The following applies: 16th day after spraying.
From the text: as §2
as §1, with “2.5” for “2.3”, “16th” for “6th”, “in accordance with” for “based on”, “evaluation” for “following”, “standards described in the above (1) herbicidal effect test,” for “standards”, “2. Further, the expected value of the growth inhibition rate (%) was calculated in accordance with the Colby's formula described in the above (1) herbicidal effect test, and the results are also shown in Table 2.” for “1.”

Test [3] relates to forage corn (cultivar: SNOW DENT OTOHA). As to the kind of experiment: (20) Plant growth promotion effect test (corn), Italian ryegrass sown. To be noted: 33rd day after the sowing, above-ground part. Here is the method:
Upland soil was put in a 1/1,000,000 hectare pot, and seeds of Italian ryegrass (Lolium multiflorum) were sown. When the Italian ryegrass reached 2.7 to 3.0 leaf stage, a water-based suspension containing tiafenacil as the active ingredient, prepared by a conventional method for preparing a water-based suspension, and an emulsifiable concentrate containing dimethenamid-P as the active ingredient (tradename: Fieldstar P emulsifiable concentrate, manufactured by BASF) were diluted with water (in an amount corresponding to 200 liter per hectare) containing 0.5 vol % of an agricultural spreader (tradename: Destiny HC, manufactured by Winfield Solutions, LLC.) and sprayed by a small spray gun (model: W-101-132G, manufactured by ANEST IWATA Corporation). Seeds of forage corn (cultivar: SNOW DENT OTOHA, manufactured by SNOW BRAND SEED Co., Ltd.) were sown in the pot after spraying. On the 33rd day after the sowing, the above-ground part of the forage corn was reaped, and its weight was measured to obtain the raw weight.

The test system of test [4] is Italian ryegrass (Lolium multiflorum). As to the kind of experiment: (4) Herbicidal effect test, pot, spray at 2.5 to 3.0 leaf stage. To be noted: 7th day after spraying.
From the text: as §2
Upland soil was put in a 1/1,000,000 hectare pot, and seeds of Italian ryegrass (Lolium multiflorum) were sown. When the Italian ryegrass reached 2.5 to 3.0 leaf stage, a water-based suspension containing tiafenacil as the active ingredient, prepared by a conventional method for preparing a water-based suspension, and a wettable powder containing metribuzin as the active ingredient (tradename: SENCOR wettable powder, manufactured by Bayer Crop Science) were diluted with water (in an amount corresponding to 200 liter per hectare) containing 0.5 vol % of an agricultural spreader (tradename: Destiny HC, manufactured by Winfield Solutions, LLC.) and sprayed by a small spray gun (model: W-101-132G, manufactured by ANEST IWATA Corporation).
On the 7th day after spraying, the state of growth of the Italian ryegrass was visually observed, and the growth inhibition rate (%) was obtained in accordance with the evaluation standards described in the above (1) herbicidal effect test, and the results are shown in Table 4. Further, the expected value of the growth inhibition rate (%) was calculated in accordance with the Colby's formula described in the above (1) herbicidal effect test, and the results are also shown in Table 4.

Test [5] has the same test system. As to the kind of experiment: (6) Herbicidal effect test, pot, spray at 2.5 to 3.0 leaf stage. The following applies: 14th day after spraying.
From the text: as §2
Upland soil was put in a 1/1,000,000 hectare pot, and seeds of Italian ryegrass (Lolium multiflorum) were sown. When the Italian ryegrass reached 2.5 to 3.0 leaf stage, a water-based suspension containing tiafenacil as the active ingredient, prepared by a conventional method for preparing a water-based suspension, and water dispersible granules containing pyroxasulfone as the active ingredient (tradename: Sakura, manufactured by Bayer Crop Science) were diluted with water (in an amount corresponding to 200 liter per hectare) containing 0.5 vol % of an agricultural spreader (tradename: Destiny HC, manufactured by Winfield Solutions, LLC.) and sprayed by a small spray gun (model: W-101-132G, manufactured by ANEST IWATA Corporation). On the 14th day after spraying, the state of growth of the Italian ryegrass was visually observed, and the growth inhibition rate (%) was obtained in accordance with the evaluation standards described in the above (1) herbicidal effect test, and the results are shown in Table 6. Further, the expected value of the growth inhibition rate (%) was calculated in accordance with the Colby's formula described in the above (1) herbicidal effect test, and the results are also shown in Table 6.

As to `CCc1cccc(C)c1N(C(=O)CCl)[C@@H](C)COC` [S-metolachlor], the “Growth inhibition rate (%) Measured value” was 0% in test [1] (Dose 125 g/ha); 1% in test [1] (Dose 250 g/ha); 3% in test [1] (Dose 375 g/ha); 4% in test [1] (Dose 750 g/ha); 5% in test [1] (Dose 1500 g/ha); 5% in test [1] (Dose 3000 g/ha). In addition, the “Growth inhibition rate (%) Measured value” in test [2] (Dose 62.5 g/ha) is 0%; in test [2] (Dose 125 g/ha), 0%; in test [2] (Dose 750 g/ha) it was 7%; in test [2] (Dose 1500 g/ha) it was 55%; in test [2] (Dose 3000 g/ha) it was 73%.
`COC[C@H](C)N(C(=O)CCl)c1c(C)csc1C` [dimethenamid-P]: the “Raw weight (g) of forage corn” value in test [3] (Dose 60 g/ha) was 9.8 g; in test [3] (Dose 375 g/ha) it was 12.5 g; in test [3] (Dose 750 g/ha), 8.0 g.
Consider `CSc1nnc(C(C)(C)C)c(=O)n1N` [metribuzin], for which the inhibition at 9.38 g/ha in test [4] (Lolium multiflorum, Dose 9.38 g/ha, read-out: Growth inhibition rate (%) Measured value) came out at 0%. The inhibition at 275 g/ha in test [4] (Lolium multiflorum, Dose 275 g/ha, read-out: Growth inhibition rate (%) Measured value) is 45%. For the same compound, the inhibition at 550 g/ha in test [4] (Lolium multiflorum, Dose 550 g/ha, read-out: Growth inhibition rate (%) Measured value) came to 57%. Besides, in test [4] (Lolium multiflorum, Dose 1100 g/ha, read-out: Growth inhibition rate (%) Measured value), the inhibition at 1100 g/ha amounted to 88%.
For the compound `Cn1nc(C(F)(F)F)c(CS(=O)(=O)C2=NOC(C)(C)C2)c1OC(F)F` [pyroxasulfone], the inhibition at 15 g/ha in test [5] (Lolium multiflorum, Dose 15 g/ha, read-out: Growth inhibition rate (%) Measured value) is 0%. Further, in test [5] (Lolium multiflorum, Dose 30 g/ha, read-out: Growth inhibition rate (%) Measured value), the inhibition at 30 g/ha turned out to be 5%. For the same compound, in test [5] (Lolium multiflorum, Dose 125 g/ha, read-out: Growth inhibition rate (%) Measured value), the inhibition at 125 g/ha came to 35%. Besides, the inhibition at 250 g/ha in test [5] (Lolium multiflorum, Dose 250 g/ha, read-out: Growth inhibition rate (%) Measured value) is 42%. Further, in test [5] (Lolium multiflorum, Dose 500 g/ha, read-out: Growth inhibition rate (%) Measured value), the inhibition at 500 g/ha was found to be 67%. Further, the inhibition at 1000 g/ha in test [5] (Lolium multiflorum, Dose 1000 g/ha, read-out: Growth inhibition rate (%) Measured value) was determined as 72%.
With `COC(=O)CCNC(=O)C(C)Sc1cc(-n2c(=O)cc(C(F)(F)F)n(C)c2=O)c(F)cc1Cl` (stereo not drawn) [tiafenacil], the “Growth inhibition rate (%) Measured value” in test [5] (Dose 12.5 g/ha) was 63%; in test [4] (Dose 6.25 g/ha), 30%; in test [1] (Dose 12.5 g/ha), 75%; in test [1] (Dose 25 g/ha), 83%; in test [2] (Dose 12.5 g/ha), 30%. Moreover, the “Raw weight (g) of forage corn” value in test [3] (Dose 6.25 g/ha) is 12.1 g.

The term inhibition denotes the change of the read-out against control, counted positive when it falls.
